Legend:
[1] = test system: 786-O (renal cell carcinoma-clear cell) cells; experiment: MTS cell death / rescue assay in 786-O cells; type: cell-based; settings: 786-O cells with HDL NPs
[2] = test system: 769-P, a clear cell renal carcinoma cell line; experiment: MTS cell death / rescue assay in 769-P cells; type: cell-based; settings: 769-P cells with HDL NPs
[3] = test system: OVCAR5 CP Resistant Cell Line; experiment: MTS cell death / rescue assay in OVCAR5 CP Resistant cells; type: cell-based; settings: OVCAR5 CP Resistant cells with HDL NPs
OVCAR5 cell line = experiment: MTS cell death / rescue assay in OVCAR5 cells; type: cell-based; settings: OVCAR5 cells with HDL NPs
Ramos cells = experiment: Cell death (MTS) assay in Ramos cells; type: cell-based, human; settings: Ramos cells cultured with HDL NPs; inhibitor added at 1 μM
Method: (§1) MTS assays (CellTiter; Promega) were conducted as described previously. For the Ramos, SUDHL4, Raji, Daudi, Namalwa, SUDHL6 and Jurkat cells were plated at a density of 2×10^5 cells/mL, and cultured for 72 hours prior to assay. SUDHL1, SR-786, and U937 cells were plated at a density of 5×10^4 cells/mL and cultured for 5 days prior to MTS assay. The SCARB1 blocking and isotype control antibodies were added at a dilution of 1:1000 to 1:250. Ferrostatin-1 and deferoxamine (DFO) were obtained from Sigma Aldrich, and added at a final concentration of 1 μM. MTS values were standardized to PBS control.

SUDHL4 cells = experiment: Cell death (MTS) assay in SUDHL4 cells; type: cell-based, human; settings: SUDHL4 cells cultured with HDL NPs; inhibitor added at 1 μM
Method: as §1

SMILES: CCOC(=O)c1ccc(NC2CCCCC2)c(N)c1 [ferrostatin-1]
- effect on cell death induced by HDL NPs (MTS Rescue Assay) [1]: rescued
- effect on cell death induced by HDL NPs (MTS Rescue Assay) ([1]; listed as Ferrostatin-1): dramatic effects
- effect on cell death induced by HDL NPs (MTS) [2]: rescued
- effect on cell death induced by HDL NPs (MTS) [3]: rescued
- effect on cell death induced by HDL NPs (MTS) (OVCAR5 cell line): rescued
- effect on HDL NP induced cell death (Ramos cells): significantly inhibited
- effect on HDL NP induced cell death (SUDHL4 cells): significantly inhibited

Reference: patent US20220331445A1, “HIGH DENSITY LIPOPROTEIN-LIKE NANOPARTICLES AS INDUCERS OF FERROPTOSIS IN CANCER” (Northwestern University, priority 2019, published 2022)
